{"source": "patent US9427400B2", "about": "“Platinum-catalyzed intravaginal rings” (International Partnership for Microbicides, priority 2013, dated 2016)", "key": {"[1]": {"assay": "Log P (n-octanol and buffer)", "assay_type": "physicochemical", "settings": "at pH 9.0"}, "[2]": {"tested_on": "wild-type HIV-1 strains and HIV-1 strains harboring different resistance-inducing mutations", "settings": "wild-type and resistance-mutant strains; cited from earlier work"}, "[3]": {"assay": "Solubility profile of dapivirine", "assay_type": "physicochemical", "settings": "for solubility: read-out: Solubility Profile (Low Solubility)", "procedure": "As used herein, the term “dapivirine” refers to (4-[[4-[(2,4,6-trimethylphenyl)amino]-2-pyrimidinyl]amino]benzonitrile), a non-nucleoside reverse transcriptase inhibitor. Dapivirine is useful in the prevention and/or treatment of retroviral infection, such as HIV-1 infection. It is a crystalline compound that is white to slightly beige in color, has a melting point of about 220° C. and is virtually insoluble in water. More specifically, the solubility of dapivirine is less than 0.001 mg/gm of water (i.e., less than 1 μg/ml of water). The intravaginal rings of the instant invention may use micronized dapivirine."}}, "note": "Read-outs that look alike come from different tables or passages of the source.", "data": [{"smiles": "Cc1cc(C)c(Nc2ccnc(Nc3ccc(C#N)cc3)n2)c(C)c1", "note": "[dapivirine, 4-[[4-[(2,4,6-trimethylphenyl)amino]-2-pyrimidinyl]amino]benzonitrile]", "values": [{"measurement": "logP", "setting": "[1]", "value": 5.27}, {"measurement": "activity against HIV-1 strains", "setting": "[2]", "value": "potent activity"}, {"measurement": "solubility", "setting": "[3]; 0.1N HCl, simulated gastric fluid", "value": 280, "unit": "µg/mL"}, {"measurement": "Solubility Profile (Low Solubility)", "setting": "[3]; PEG 400", "value": "PEG 400 = 47.4 mg/g"}, {"measurement": "Solubility Profile (Low Solubility)", "setting": "[3]; Propylene Glycol", "value": "Propylene Glycol = 2.69 mg/g"}, {"measurement": "solubility", "setting": "[3]; water", "value": "> 1", "unit": "µg/mL"}]}]}
